From patent publication US9200051B2, “Peptide compound” (TAKEDA PHARMACEUTICAL COMPANY LIMITED, priority 2013, dated 2015)
Where two headings read alike, the source gives them in different places. Square brackets hold non-standard residues; d marks the D form. Peptide text beside a SMILES is read from it. αMeF = C[C@](N)(Cc1ccccc1)C(=O)O; Aib = CC(C)(N)C(=O)O

Assays:
Format in all cases: cell-based
human GIPR = molecular target: T1, human GIPR (Homo sapiens, UniProt P48546); experiment: Agonist activity against human GIPR, CRE-luciferase reporter assay (rise in intracellular cAMP) in hGIPR/CRE-LUC/CHO-K1 cells
T1 construct: expressed in transfected cells; host or cells: CHO-K1 (CRE-LUC/CHO-K1), plasmid hGIPR/pMSRα-neo
T1 sequence (P48546 22-466): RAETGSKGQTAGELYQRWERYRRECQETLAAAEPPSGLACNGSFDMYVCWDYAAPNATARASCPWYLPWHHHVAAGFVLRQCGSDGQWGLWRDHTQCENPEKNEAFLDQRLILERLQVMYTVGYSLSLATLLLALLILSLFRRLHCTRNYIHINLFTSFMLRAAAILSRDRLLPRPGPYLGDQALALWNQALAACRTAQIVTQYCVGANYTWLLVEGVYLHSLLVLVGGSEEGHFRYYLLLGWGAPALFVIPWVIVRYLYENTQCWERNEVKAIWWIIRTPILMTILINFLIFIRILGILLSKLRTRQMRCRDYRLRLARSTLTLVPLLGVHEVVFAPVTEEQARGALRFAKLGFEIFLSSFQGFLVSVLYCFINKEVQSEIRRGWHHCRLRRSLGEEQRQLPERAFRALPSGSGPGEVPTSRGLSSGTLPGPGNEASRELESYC
Excerpt: (§1) Evaluation of agonist activity against human GIPR, human GLP-1R and human glucagon R using rise in intracellular cAMP concentration as index
The human GIPR gene having a sequence identical to the sequence of GenBank Accession No. U39231 was cloned into pMSRα-neo vector to prepare hGIPR/pMSRα-neo.
(§2) The luciferase reporter gene having an upstream cAMP response sequence was introduced to CHO-K1 cells to construct CRE-LUC/CHO-K1 cells.
The plasmid hGIPR/pMSRα-neo obtained in (1) was introduced to the CRE-LUC/CHO-K1 cells obtained in (2) to obtain transformants. Next, a cell line induced to express luciferase, i.e., hGIPR/CRE-LUC/CHO-K1 cells, were selected from the obtained transformants by the addition of GIP.
(§3) The hGIPR/CRE-LUC/CHO-K1 cells were inoculated at a cell density of 25 μL/well (5×10^4 cells/well) to a 384-well white plate (Corning), and cultured overnight in Ham F12 medium containing 10% fetal bovine serum, 100 U/mL penicillin and 100 μg/mL streptomycin in a CO2 incubator of 37° C. A medium containing a test compound was added at a concentration of 5 μL/well to the cells, and the resultant cells were incubated for 4 hours in a CO2 incubator of 37° C. to give the final concentration of 1 μM. PicaGene LT7.5 (Toyo Ink Co., Ltd.) was added thereto at a concentration of 30 μL/well, and the mixture was shaken with light shielded. After 30 minutes, the luciferase activity was measured using a plate reader Envision (PerkinElmer). The luciferase activity in the presence of 10 nM GIP was defined as 100%, and the luciferase activity from the addition of DMSO instead of the test compound was defined as 0%. The GIPR agonist activity was calculated with a rise in intracellular cAMP concentration as an index.

human GLP-1R = molecular target: T2, human GLP-1R (Homo sapiens, UniProt P43220); experiment: Agonist activity against human GLP-1R, CRE-luciferase reporter assay in hGLP-1R/CRE-luc/CHO-K1 cells
T2 construct: expressed in transfected cells; host or cells: CHO-K1, plasmids hGLP-1/pIRESneo3 and Cre-luc(Zeo)
T2 sequence (P43220 24-463): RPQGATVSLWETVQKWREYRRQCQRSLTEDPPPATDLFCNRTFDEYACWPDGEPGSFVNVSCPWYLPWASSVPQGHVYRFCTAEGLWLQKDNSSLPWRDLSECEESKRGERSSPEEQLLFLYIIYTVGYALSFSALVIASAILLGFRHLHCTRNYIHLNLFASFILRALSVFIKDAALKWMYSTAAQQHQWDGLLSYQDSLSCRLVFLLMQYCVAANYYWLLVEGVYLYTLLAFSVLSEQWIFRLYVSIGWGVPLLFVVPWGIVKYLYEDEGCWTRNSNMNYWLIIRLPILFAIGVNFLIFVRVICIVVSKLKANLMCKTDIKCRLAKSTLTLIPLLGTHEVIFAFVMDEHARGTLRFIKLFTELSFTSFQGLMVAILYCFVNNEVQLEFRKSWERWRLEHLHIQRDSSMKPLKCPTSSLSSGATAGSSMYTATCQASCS
Excerpt: as §1
Four copies of the cAMP response sequence and the Zeocin resistance gene were introduced to pGL3(R2.2)-Basic Vector (Promega) to construct Cre-luc(Zeo) reporter plasmid.
The human GLP-1R gene having a sequence identical to the sequence of GenBank Accession No. NM_002062 was cloned into pIRESneo3 vector to prepare hGLP-1/pIRESneo3.
The Cre-luc(Zeo) obtained in (3) and the plasmid hGLP-1/pIRESneo3 obtained in (5) were introduced to CHO-K1 cells to obtain transformants. Next, a cell line induced to express luciferase, i.e., hGLP-1R/CRE-luc/CHO-K1 cells, were selected from the obtained transformants by the addition of GLP-1.
as §3
The GLP-1R agonist activity was assayed in the same way as above using the hGLP-1R/CRE-luc/CHO-K1 cells. The luciferase activity in the presence of 10 nM GLP-1 was defined as 100%, and the luciferase activity from the addition of DMSO instead of the test compound was defined as 0%. The GLP-1R agonist activity was calculated with a rise in intracellular cAMP concentration as an index.

human glucagon R = molecular target: T3, human glucagon R (Homo sapiens, UniProt P47871); experiment: Agonist activity against human glucagon R, CRE-luciferase reporter assay in hGlucagonR/CRE-LUC/CHO-K1 cells
T3 construct: expressed in transfected cells; host or cells: CHO-K1 (CRE-LUC/CHO-K1), plasmid hGlucagonR/pMSRα-neo
T3 sequence (P47871 26-477): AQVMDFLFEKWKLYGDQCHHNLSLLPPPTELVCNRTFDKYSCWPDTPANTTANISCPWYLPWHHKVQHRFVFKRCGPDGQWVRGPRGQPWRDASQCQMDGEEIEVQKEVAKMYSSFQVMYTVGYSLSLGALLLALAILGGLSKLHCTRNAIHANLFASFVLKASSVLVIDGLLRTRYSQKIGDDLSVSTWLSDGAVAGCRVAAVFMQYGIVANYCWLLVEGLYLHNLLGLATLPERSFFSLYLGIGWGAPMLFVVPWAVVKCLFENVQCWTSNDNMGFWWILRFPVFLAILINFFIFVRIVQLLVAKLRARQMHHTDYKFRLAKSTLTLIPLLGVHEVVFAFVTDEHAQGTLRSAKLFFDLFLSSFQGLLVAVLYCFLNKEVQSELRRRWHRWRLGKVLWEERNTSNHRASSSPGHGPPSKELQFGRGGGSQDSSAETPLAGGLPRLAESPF
Excerpt: as §1, §2
The human glucagon R gene having a sequence identical to the sequence of GenBank Accession No. NM_000160 was cloned into pMSRα-neo vector to prepare hGlucagonR/pMSRα-neo.
The plasmid hGlucagonR/pMSRα-neo obtained in (7) was introduced to the CRE-LUC/CHO-K1 cells obtained in (2) to obtain transformants. Next, a cell line induced to express luciferase, i.e., hGlucagonR/CRE-LUC/CHO-K1 cells, were selected from the obtained transformants by the addition of glucagon.
as §3
The glucagon R agonist activity was assayed in the same way as above using the hGlucagonR/CRE-LUC/CHO-K1 cells. The luciferase activity in the presence of 10 nM glucagon was defined as 100%, and the luciferase activity from the addition of DMSO instead of the test compound was defined as 0%. The glucagon agonist activity was calculated with a rise in intracellular cAMP concentration as an index.

CC[C@H](C)[C@H](NC(=O)C(C)(C)NC(=O)[C@H](Cc1ccc(O)cc1)NC(=O)[C@H](CC(=O)O)NC(=O)[C@H](CO)NC(=O)[C@@H](NC(=O)[C@](C)(Cc1ccccc1)NC(=O)[C@@H](NC(=O)CNC(=O)[C@H](CCC(=O)O)NC(=O)C(C)(C)NC(=O)[C@@H](N)Cc1ccc(O)cc1)[C@@H](C)O)[C@@H](C)O)C(=O)NC(C)(C)C(=O)N[C@@H](CC(C)C)C(=O)N[C@@H](CC(=O)O)C(=O)N[C@@H](CCCCN)C(=O)N[C@@H](CCC(N)=O)C(=O)N[C@@H](C)C(=O)N[C@@H](CCC(N)=O)C(=O)N[C@@H](C)C(=O)N[C@@H](CCC(=O)O)C(=O)N[C@@H](Cc1ccccc1)C(=O)N[C@H](C(=O)N[C@@H](CCCCN)C(=O)N[C@@H](Cc1c[nH]c2ccccc12)C(=O)N[C@@H](CC(C)C)C(=O)N[C@@H](CC(C)C)C(=O)N[C@@H](CCCCN)C(=O)NCC(=O)NCC(=O)N1CCC[C@H]1C(=O)N[C@@H](CO)C(=O)N[C@@H](CO)C(=O)NCC(=O)N[C@@H](C)C(=O)N1CCC[C@H]1C(=O)N1CCC[C@H]1C(=O)N1CCC[C@H]1C(=O)N[C@@H](CO)C(N)=O)C(C)C [Example 6] (H-Y[Aib]EGT[αMeF]TSDY[Aib]I[Aib]LDKQAQAEFVKWLLKGGPSSGAPPPS-NH2)
EC50 (human GIPR): 0.0073 nM | EC50 (human GLP-1R): 0.016 nM | EC50 (human glucagon R): > 1000 nM

CC[C@H](C)[C@H](NC(=O)[C@H](C)NC(=O)[C@H](Cc1ccc(O)cc1)NC(=O)[C@H](CC(=O)O)NC(=O)[C@H](CO)NC(=O)[C@@H](NC(=O)[C@](C)(Cc1ccccc1)NC(=O)[C@@H](NC(=O)CNC(=O)[C@H](CCC(=O)O)NC(=O)C(C)(C)NC(=O)[C@@H](N)Cc1ccc(O)cc1)[C@@H](C)O)[C@@H](C)O)C(=O)NC(C)(C)C(=O)N[C@@H](CC(C)C)C(=O)N[C@@H](CC(=O)O)C(=O)N[C@@H](CCCCN)C(=O)N[C@@H](CCC(N)=O)C(=O)N[C@@H](C)C(=O)N[C@@H](CCC(N)=O)C(=O)N[C@@H](CO)C(=O)N[C@@H](CCC(=O)O)C(=O)N[C@@H](Cc1ccccc1)C(=O)N[C@H](C(=O)N[C@@H](CCCCN)C(=O)N[C@@H](Cc1c[nH]c2ccccc12)C(=O)N[C@@H](CC(C)C)C(=O)N[C@@H](CC(C)C)C(=O)N[C@@H](CCCCN)C(=O)NCC(=O)NCC(=O)N1CCC[C@H]1C(=O)N[C@@H](CO)C(=O)N[C@@H](CO)C(=O)NCC(=O)N[C@@H](C)C(=O)N1CCC[C@H]1C(=O)N1CCC[C@H]1C(=O)N1CCC[C@H]1C(=O)N[C@@H](CO)C(N)=O)C(C)C [Example 7] (H-Y[Aib]EGT[αMeF]TSDYAI[Aib]LDKQAQSEFVKWLLKGGPSSGAPPPS-NH2)
EC50 (human GIPR; hGIPR/CRE-LUC/CHO-K1 cells, 4 hours incubation, 10 nM GIP = 100%, read-out: Agonist activity (EC50) hGIPR): 0.0069 nM | EC50 (human GLP-1R; hGLP-1R/CRE-luc/CHO-K1 cells, 4 hours incubation, 10 nM GLP-1 = 100%, read-out: Agonist activity (EC50) hGLP-1R): 0.0088 nM | EC50 (human glucagon R; hGlucagonR/CRE-LUC/CHO-K1 cells, 4 hours incubation, 10 nM glucagon = 100%, read-out: Agonist activity (EC50) hGCGR): > 1000 nM

CC[C@H](C)[C@H](NC(=O)C(C)(C)NC(=O)[C@H](Cc1ccc(O)cc1)NC(=O)[C@H](CC(=O)O)NC(=O)[C@H](CO)NC(=O)[C@@H](NC(=O)[C@](C)(Cc1ccccc1)NC(=O)[C@@H](NC(=O)CNC(=O)[C@H](CCC(=O)O)NC(=O)C(C)(C)NC(=O)[C@@H](N)Cc1ccc(O)cc1)[C@@H](C)O)[C@@H](C)O)C(=O)NC(C)(C)C(=O)N[C@@H](CC(C)C)C(=O)N[C@@H](CC(=O)O)C(=O)N[C@@H](CCCCN)C(=O)N[C@@H](CCC(N)=O)C(=O)N[C@@H](C)C(=O)N[C@@H](CCC(N)=O)C(=O)N[C@@H](CO)C(=O)N[C@@H](CCC(=O)O)C(=O)N[C@@H](Cc1ccccc1)C(=O)N[C@H](C(=O)N[C@@H](CCCCN)C(=O)N[C@@H](Cc1c[nH]c2ccccc12)C(=O)N[C@@H](CC(C)C)C(=O)N[C@@H](CC(C)C)C(=O)N[C@@H](CCCCN)C(=O)NCC(=O)NCC(=O)N1CCC[C@H]1C(=O)N[C@@H](CO)C(=O)N[C@@H](CO)C(=O)NCC(=O)N[C@@H](C)C(=O)N1CCC[C@H]1C(=O)N1CCC[C@H]1C(=O)N1CCC[C@H]1C(=O)N[C@@H](CO)C(N)=O)C(C)C [Example 8] (H-Y[Aib]EGT[αMeF]TSDY[Aib]I[Aib]LDKQAQSEFVKWLLKGGPSSGAPPPS-NH2)
EC50 (human GIPR): 0.008 nM | EC50 (human GLP-1R): 0.014 nM | EC50 (human glucagon R): > 1000 nM

CC(C)C[C@H](NC(=O)[C@H](CC(C)C)NC(=O)[C@H](Cc1c[nH]c2ccccc12)NC(=O)[C@H](CCCCN)NC(=O)[C@@H](NC(=O)[C@H](Cc1ccccc1)NC(=O)[C@H](CCC(=O)O)NC(=O)[C@H](C)NC(=O)[C@H](CCC(N)=O)NC(=O)[C@H](C)NC(=O)[C@H](CCC(N)=O)NC(=O)[C@H](CCCCN)NC(=O)[C@H](CC(=O)O)NC(=O)[C@H](CC(C)C)NC(=O)C(C)(C)NC(=O)[C@H](CCCCN)NC(=O)C(C)(C)NC(=O)[C@H](Cc1ccc(O)cc1)NC(=O)[C@H](CC(=O)O)NC(=O)[C@H](CO)NC(=O)[C@@H](NC(=O)[C@](C)(Cc1ccccc1)NC(=O)[C@@H](NC(=O)CNC(=O)[C@H](CCC(=O)O)NC(=O)C(C)(C)NC(=O)[C@@H](N)Cc1ccc(O)cc1)[C@@H](C)O)[C@@H](C)O)C(C)C)C(=O)N[C@@H](CCCCN)C(=O)NCC(=O)NCC(=O)N1CCC[C@H]1C(=O)N[C@@H](CO)C(=O)N[C@@H](CO)C(=O)NCC(=O)N[C@@H](C)C(=O)N1CCC[C@H]1C(=O)N1CCC[C@H]1C(=O)N1CCC[C@H]1C(=O)N[C@@H](CO)C(=O)N[C@@H](CCCCN)C(N)=O [Example 9] (H-Y[Aib]EGT[αMeF]TSDY[Aib]K[Aib]LDKQAQAEFVKWLLKGGPSSGAPPPSK-NH2)
EC50 (human GIPR): 0.008 nM | EC50 (human GLP-1R): 0.015 nM | EC50 (human glucagon R): > 1000 nM

CC(C)C[C@H](NC(=O)[C@H](CC(C)C)NC(=O)[C@H](Cc1c[nH]c2ccccc12)NC(=O)[C@H](CCCCN)NC(=O)[C@@H](NC(=O)[C@H](Cc1ccccc1)NC(=O)[C@H](CCC(=O)O)NC(=O)[C@H](C)NC(=O)[C@H](CCC(N)=O)NC(=O)[C@H](C)NC(=O)[C@H](CCC(N)=O)NC(=O)[C@H](CCCCN)NC(=O)[C@H](CC(=O)O)NC(=O)[C@H](CC(C)C)NC(=O)C(C)(C)NC(=O)[C@H](C)NC(=O)C(C)(C)NC(=O)[C@H](Cc1ccc(O)cc1)NC(=O)[C@H](CC(=O)O)NC(=O)[C@H](CO)NC(=O)[C@@H](NC(=O)[C@](C)(Cc1ccccc1)NC(=O)[C@@H](NC(=O)CNC(=O)[C@H](CCC(=O)O)NC(=O)C(C)(C)NC(=O)[C@@H](N)Cc1ccc(O)cc1)[C@@H](C)O)[C@@H](C)O)C(C)C)C(=O)N[C@@H](CCCCN)C(=O)NCC(=O)NCC(=O)N1CCC[C@H]1C(=O)N[C@@H](CO)C(=O)N[C@@H](CO)C(=O)NCC(=O)N[C@@H](C)C(=O)N1CCC[C@H]1C(=O)N1CCC[C@H]1C(=O)N1CCC[C@H]1C(=O)N[C@@H](CO)C(=O)N[C@@H](CCCCN)C(N)=O [Example 10] (H-Y[Aib]EGT[αMeF]TSDY[Aib]A[Aib]LDKQAQAEFVKWLLKGGPSSGAPPPSK-NH2)
EC50 (human GIPR): 0.0054 nM | EC50 (human GLP-1R): 0.0083 nM | EC50 (human glucagon R): > 1000 nM
